US6737383B1, “Herbicidal oxadiazolidines” (priority 1999, dated 2004)

Tests used:
soybean = test: Test B pre/postemergence soybean; format: in vivo, Glycine max
In short: (§1)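 Test chemicals in a non-phytotoxic solvent mixture with surfactant were sprayed preemergence onto planted seeds and postemergence onto plants 2 to 18 cm tall (1- to 4-leaf stage). After twelve to sixteen days in a greenhouse, injury was visually rated against untreated controls from 0 (no effect) to 10 (complete control).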

wheat = test: Test B pre/postemergence wheat; format: in vivo, Triticum aestivum
In short: as §1

purple nutsedge = test: Test B pre/postemergence purple nutsedge; format: in vivo, Cyperus rotundus
In short: as §1

duck salad = test: Test B flood test duck salad; format: in vivo, Heteranthera limosa
In short: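 Each value is a visual injury score relative to controls, with 10 meaning complete control and 0 no effect. Evaluation took place twelve to sixteen days after the 2-leaf-stage plants were treated and kept in the greenhouse.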

Alexandergrass = test: Test D Alexandergrass; format: in vivo, Brachiaria plantaginea; settings: Preemergence, 0 to 100 scale
From the text: (§2) Seeds, tubers, or plant parts of Alexandergrass (Brachiaria plantaginea), bermuda-grass (Cynodon dactylon), common pursiane (Portulaca oleracea), common ragweed (Ambrosia elatior), common groundsel (Senecio vulgaris), dallisgrass (Paspalum dilatatum), goosegrass (Eleusine indica), guineagrass (Panicum maximum), itchgrass (Rottboellia exaltata), Johnson grass (Sorghum halepense), large crabgrass (Digitaria sanguinalis), pitted morningglory (Ipomoea lacunosa), purple nutsedge (Cyperus rotundus), sandbur (Cenchrus echinatus), sourgrass (Trichachne insularis), Spanishneedles (Bidens bipinnata), surinam grass (Brachiaria decumbens) and tall mallow (Malva sylvestris) were planted into greenhouse pots of flats containing greenhouse planting medium. Plant species were grown in separate pots or individual compartments. Preemergence applications were made within one day of planting the seed or plant part.
(§3) Test chemicals were formulated in a non-phytotoxic solvent mixture which included a surfactant and applied preemergence to the surface of the pot containing seeds in a sandy loam soil. Untreated control pots and treated pots were placed in the greenhouse for growth and visually evaluated for injury 14 to 21 days after herbicide application. Plant response ratings, summarized in Table C, are based on a 0 to 100 scale where 0 is no injury and 100 is complete control. A dash (−) response means no test result.

common pursiane = test: Test D common purslane; format: in vivo, Portulaca oleracea
From the text: as §2, §3

common ragweed = test: Test D common ragweed; format: in vivo, Ambrosia elatior; settings: Preemergence, 0 to 100 scale
In short: (§4)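 Weed seeds planted in sandy loam; species kept apart in individual pots or compartments. Preemergence tests: treatment to soil surface within one day. Greenhouse growth, then visual injury scoring at 14–21 days (0–100).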

surinam grass = test: Test D surinam grass; format: in vivo, Brachiaria decumbens; settings: Preemergence, 0 to 100 scale
From the text: as §2, §3

tall mallow = test: Test D tall mallow; format: in vivo, Malva sylvestris; settings: Preemergence, 0 to 100 scale
From the text: as §2, §3

Green foxtail [1] = test: Test D green foxtail; format: in vivo; settings: Preemergence, 0 to 100 scale
In short: as §4

winter wheat [2] = test: Test E winter wheat; format: in vivo, Triticum aestivum; settings: Postemergence; for Plant response rating, Wheat (winter): 0 to 100 scale
In short: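 For postemergence, application to 1- to 4-leaf plants growing in a 60:40 sandy loam–potting mix substrate. Formulation: non-phytotoxic solvent mixture plus surfactant. Untreated controls served as the reference for the visual rating after ~21–28 days.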

blackgrass = test: Test E blackgrass; format: in vivo, Alopecurus myosuroides; settings: Preemergence
green foxtail [3] = test: Test E green foxtail; format: in vivo, Setaria viridis; settings: Preemergence
Italian ryegrass = test: Test E Italian ryegrass; format: in vivo, Lolium multiflorum; settings: Preemergence
winter wheat [4] = test: Test E winter wheat; format: in vivo, Triticum aestivum; settings: Preemergence
wild oat = test: Test E wild oat; format: in vivo, Avena fatua; settings: Preemergence
winter barley = test: Test E winter barley; format: in vivo, Hordeum vulgare; settings: Preemergence
[5] = Postemergence, Rate 62 g/ha, scale 0 to 10, 0 is no effect, 10 is complete control
[6] = Postemergence, Rate 250 g/ha, scale 0 to 10, 0 no effect, 10 complete control
[7] = Preemergence, Rate 62 g/ha, scale 0 to 10, 0 is no effect, 10 is complete control
[8] = Preemergence, Rate 125 g/ha, scale 0 to 10 (0 no effect, 10 complete control)
[9] = Preemergence, Rate 250 g/ha, scale of 0 to 10 where 0 is no effect and 10 is complete control
[10] = Preemergence, Rate 500 g/ha, scale 0 (no effect) to 10 (complete control)
[11] = Rate 125 g/ha, Postemergence, scale 0 to 10, 0 no effect, 10 complete control
[12] = Rate 500 g/ha, Postemergence, 0 to 10 scale (0 no effect, 10 complete control)
[13] = Rate 125 g/ha, Postemergence section (flood test species), scale 0 to 10, 0 no effect, 10 complete control
[14] = Rate 500 g/ha, Postemergence section of Table B, 0 to 10 scale (0 no effect, 10 complete control)
[15] = flood test, listed under Postemergence, Rate 250 g/ha, scale 0 to 10, 0 no effect, 10 complete control
[16] = Rate 32 g/ha, 0 no injury, 100 complete control
[17] = Rate 64 g/ha, 0 no injury, 100 complete control
[18] = Rate 125 g/ha, 0 no injury, 100 complete control
[19] = Postemergence, Rate 125 g/ha, scale of 0 to 10 where 0 is no effect and 10 is complete control
[20] = Preemergence, Rate 62 g/ha, scale 0 to 10 (0 no effect, 10 complete control)
[21] = Preemergence, Rate 125 g/ha, 0 is no effect, 10 is complete control
[22] = Preemergence, Rate 250 g/ha, scale 0 to 10, 0 is no effect, 10 is complete control
[23] = Preemergence, Rate 500 g/ha, scale 0 to 10 (0 no effect, 10 complete control)
[24] = Rate 62 g/ha, Postemergence, scale of 0 to 10 where 0 is no effect and 10 is complete control
[25] = Rate 250 g/ha, Postemergence, scale 0 to 10, 0 is no effect, 10 is complete control
[26] = Rate 500 g/ha, Postemergence, scale 0 to 10
[27] = Rate 125 g/ha, 0 to 100 scale (0 no effect, 100 complete control)
[28] = Rate 500 g/ha, 0 to 100 scale where 0 is no effect and 100 is complete control

## CCc1ccccc1-n1c(=O)on(C(=O)N(c2ccc(F)cc2)C(C)C)c1=O [Compound 34]
soybean; [5]
  Soybean plant response rating: 0
soybean; [6]
  Soybean plant response rating: 0
soybean; [7]
  Plant response rating, Soybean: 0
soybean; [8]
  Plant response rating, Soybean: 0
soybean; [9]
  Plant response rating, Soybean: 0
soybean; [10]
  Soybean plant response rating: 0
soybean; [11]
  Soybean plant response rating: 0
wheat; [5]
  Wheat plant response rating: 0
wheat; [6]
  Wheat plant response rating: 0
wheat; [7]
  Plant response rating, Wheat: 0
wheat; [8]
  Plant response rating, Wheat: 0
wheat; [9]
  Plant response rating, Wheat: 0
wheat; [10]
  Wheat plant response rating: 2
wheat; [11]
  Wheat plant response rating: 0
Purple nutsedge; [5]
  Nutsedge plant response rating: 0
Purple nutsedge; [6]
  Nutsedge plant response rating: 0
Purple nutsedge; [7]
  Plant response rating, Nutsedge: 0
Purple nutsedge; [8]
  Plant response rating, Nutsedge: 0
Purple nutsedge; [9]
  Plant response rating, Nutsedge: 0
Purple nutsedge; [10]
  Nutsedge plant response rating: 0
Purple nutsedge; [11]
  Nutsedge plant response rating: 0
Purple nutsedge; [12]
  Nutsedge plant response rating: 0
Duck salad; [5]
  Ducksalad plant response rating: 0
Duck salad; [13]
  Ducksalad plant response rating: 0
Duck salad; [14]
  Ducksalad plant response rating: 0
Duck salad; [15]
  Ducksalad plant response rating: 0
Alexandergrass; [16]
  Plant response rating, Alexandergrass: 0
Alexandergrass; [17]
  Plant response rating, Alexandergrass: 20
Alexandergrass; [18]
  Plant response rating, Alexandergrass: 30
Alexandergrass; Rate 250 g/ha
  Plant response rating, Alexandergrass: 60
Common pursiane; Rate 32 g/ha; Preemergence; 0 to 100 scale, 0 no injury, 100 complete control
  Plant response rating, C. purslane: 0
Common pursiane; Rate 125 g/ha, Preemergence; 0 to 100 scale, 0 no injury, 100 complete control
  Plant response rating, C. purslane: 0
Common pursiane; Rate 250 g/ha; Preemergence; 0 to 100 scale
  Plant response rating, C. purslane: 0
Common ragweed; [16]
  Plant response rating, C. ragweed: 0
Common ragweed; [17]
  Plant response rating, C. ragweed: 0
Common ragweed; [18]
  Plant response rating, C. ragweed: 0
Common ragweed; Rate 250 g/ha
  Plant response rating, C. ragweed: 0
Surinam grass; [16]
  Plant response rating Surinam grass: 0
Surinam grass; [17]
  Surinam grass plant response rating: 0
Surinam grass; [18]
  Surinam grass plant response rating: 0
Surinam grass; Rate 250 g/ha
  Plant response rating Surinam grass: 20
Tall mallow; [16]
  Plant response rating, Tall Mallow: 0
Tall mallow; [17]
  Tall Mallow plant response rating: 0
Tall mallow; [18]
  Tall Mallow plant response rating: 0
Tall mallow; Rate 250 g/ha
  Plant response rating, Tall Mallow: 0
Green foxtail [1]; [16]
  Plant response rating, Green foxtail: 0

## Cc1ccccc1-n1c(=O)on(C(=O)N(c2ccccc2)C(C)C)c1=O [Compound 36]
soybean; [5]
  Soybean plant response rating: 5
soybean; [6]
  Soybean plant response rating: 5
soybean; [7]
  Plant response rating, Soybean: 0
soybean; [8]
  Plant response rating, Soybean: 0
soybean; [9]
  Plant response rating, Soybean: 0
soybean; [10]
  Soybean plant response rating: 0
soybean; [11]
  Soybean plant response rating: 5
wheat; [5]
  Wheat plant response rating: 0
wheat; [6]
  Wheat plant response rating: 0
wheat; [7]
  Plant response rating, Wheat: 0
wheat; [8]
  Plant response rating, Wheat: 0
wheat; [9]
  Plant response rating, Wheat: 0
wheat; [10]
  Wheat plant response rating: 0
wheat; [11]
  Wheat plant response rating: 0
Purple nutsedge; [5]
  Nutsedge plant response rating: 0
Purple nutsedge; [6]
  Nutsedge plant response rating: 0
Purple nutsedge; [7]
  Plant response rating, Nutsedge: 0
Purple nutsedge; [8]
  Plant response rating, Nutsedge: 0
Purple nutsedge; [9]
  Plant response rating, Nutsedge: 0
Purple nutsedge; [10]
  Nutsedge plant response rating: 0
Purple nutsedge; [11]
  Nutsedge plant response rating: 0
Purple nutsedge; [12]
  Nutsedge plant response rating: 0
Duck salad; [5]
  Ducksalad plant response rating: 0
Duck salad; [13]
  Ducksalad plant response rating: 0
Duck salad; Rate 250 g/ha, headed Pre-emergence (flood test species), scale 0 to 10 (0 no effect, 10 complete control)
  Ducksalad plant response rating: 0
Duck salad; [14]
  Ducksalad plant response rating: 0
Duck salad; Rate 500 g/ha, headed Pre-emergence (flood test species), scale 0 to 10 (0 no effect, 10 complete control)
  Plant response rating, Ducksalad: 0
Duck salad; Rate 1000 g/ha, Pre-emergence (as headed), scale 0 to 10
  Ducksalad plant response rating: 0
Duck salad; Rate 2000 g/ha, Pre-emergence (as headed), scale 0 to 10
  Ducksalad plant response rating: 0
Duck salad; [15]
  Ducksalad plant response rating: 0
Alexandergrass; Rate 500 g/ha
  Plant response rating, Alexandergrass: 98
Common pursiane; Rate 500 g/ha, Preemergence; 0 to 100 scale
  Plant response rating, C. purslane: 10
Common pursiane; Rate 500 g/ha; Preemergence; 0 to 100 scale
  Plant response rating, C. purslane: 0
Common ragweed; Rate 500 g/ha
  Plant response rating, C. ragweed: 10
Surinam grass; Rate 500 g/ha
  Plant response rating Surinam grass: 85
Tall mallow; Rate 500 g/ha
  Plant response rating, Tall Mallow: 0
Green foxtail [1]; Rate 500 g/ha
  Plant response rating, Green foxtail: 100

## Cc1ccc(N(C(=O)n2oc(=O)n(C(C)C)c2=O)C(C)C)cc1 [Compound 132]
soybean; [19]
  Soybean plant response rating: 3
soybean; [20]
  Soybean plant response rating: 0
soybean; [21]
  Soybean plant response rating (0 to 10 scale): 0
soybean; [22]
  Soybean plant response rating: 2
soybean; [23]
  Soybean plant response rating: 4
soybean; [24]
  Soybean plant response rating: 3
soybean; [25]
  Plant response rating, Soybean: 4
soybean; [26]
  Soybean plant response rating: 6
wheat; [19]
  Wheat plant response rating: 2
wheat; [20]
  Wheat plant response rating: 0
wheat; [21]
  Wheat plant response rating (0 to 10 scale): 0
wheat; [22]
  Wheat plant response rating: 2
wheat; [23]
  Wheat plant response rating: 4
wheat; [24]
  Wheat plant response rating: 0
wheat; [25]
  Plant response rating, Wheat: 2
wheat; [26]
  Wheat plant response rating: 6
Purple nutsedge; [19]
  Nutsedge plant response rating: 2
Purple nutsedge; [20]
  Nutsedge plant response rating: 0
Purple nutsedge; [21]
  Nutsedge plant response rating (0 to 10 scale): 0
Purple nutsedge; [22]
  Nutsedge plant response rating: 0
Purple nutsedge; [23]
  Nutsedge plant response rating: 9
Purple nutsedge; [24]
  Nutsedge plant response rating: 0
Purple nutsedge; [25]
  Plant response rating, Nutsedge: 3
Purple nutsedge; [26]
  Nutsedge plant response rating: 4
Alexandergrass; [17]
  Plant response rating, Alexandergrass: 98
Common pursiane; Rate 64 g/ha, Preemergence; 0 to 100 scale, 0 no injury, 100 complete control
  Plant response rating, C. purslane: 10
Common ragweed; [17]
  Plant response rating, C. ragweed: 0
Surinam grass; [17]
  Surinam grass plant response rating: 30
Tall mallow; [17]
  Tall Mallow plant response rating: 40
Winter wheat [2]; Rate 125 g/ha
  Plant response rating, Wheat (winter): 20
Winter wheat [2]; Rate 500 g/ha, 0 no effect, 100 complete control
  Plant response rating, Wheat (winter): 80
Winter wheat [2]; Rate 250 g/ha, 0 to 100 scale where 0 is no effect and 100 is complete control
  Wheat (winter) plant response rating: 50
Green foxtail [1]; [17]
  Green foxtail plant response rating: 100
  Plant response rating, Green foxtail: 100
blackgrass; [27]
  Plant response rating, Blackgrass: 20
blackgrass; Rate 250 g/ha
  Blackgrass plant response rating (0 to 100 scale): 60
blackgrass; [28]
  Plant response rating, Blackgrass: 75
Green foxtail [3]; [27]
  Plant response rating, Green foxtail: 60
Green foxtail [3]; Rate 250 g/ha
  Green foxtail plant response rating (0 to 100 scale): 98
Green foxtail [3]; [28]
  Plant response rating, Green foxtail: 100
Italian ryegrass; [27]
  Plant response rating, I. Ryegrass: 20
Italian ryegrass; Rate 250 g/ha
  I. Ryegrass plant response rating (0 to 100 scale): 100
Italian ryegrass; [28]
  Plant response rating, I. Ryegrass: 100
Winter wheat [4]; [27]
  Plant response rating, Wheat (winter): 30
Winter wheat [4]; Rate 250 g/ha
  Wheat (winter) plant response rating (0 to 100 scale): 40
Winter wheat [4]; [28]
  Plant response rating, Wheat (winter): 60
Wild oat; [27]
  Plant response rating, Wild oat: 35
Wild oat; Rate 250 g/ha
  Wild oat plant response rating (0 to 100 scale): 50
Wild oat; [28]
  Plant response rating, Wild oat: 65
Winter barley; [27]
  Plant response rating, Barley (winter): 10
Winter barley; Rate 250 g/ha
  Barley (winter) plant response rating (0 to 100 scale): 50
Winter barley; [28]
  Plant response rating, Barley (winter): 60
